Where two headings read alike, the source gives them in different places. Where only a bound is given, the exact number is not on record here.

One experiment deals with T1, C1b domain of human PKCδ (Homo sapiens, UniProt Q05655).
T1 construct: Genes encoding C1b domains of human PKCα, δ, ε, θ, and PKD1 (PKCμ) were synthesized; made in house; host or cells: E. coli BL21(DE3)
Put plainly: Competitive 3H-PDBu binding to C1b domain of PKCδ. The following applies: 3H-PDBu competition. The essentials: (§1)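 Affinity was measured by competition with the radiotracer 3H-PDBu for recombinant human GST-C1b fusion proteins expressed in E. coli BL21(DE3). Incubation ran 10 minutes at 37° C with shaking, then 20 minutes on ice, and filter-trapped 3H-PDBu was counted by scintillation. IC50 values were converted to Ki by Cheng-Prusoff using the experimentally determined Kd for each protein preparation.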

The target of the next experiment is T2, C1b domain of human PKCα (Homo sapiens, UniProt P17252).
T2 construct: Genes encoding C1b domains of human PKCα, δ, ε, θ, and PKD1 (PKCμ) were synthesized; made in house; host or cells: E. coli BL21(DE3)
Put plainly: biochemical. As to conditions: 3H-PDBu competition. The experiment is classed as binding. The essentials:
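Competitive binding against 3H-PDBu tracer used recombinant GST-C1b fusion protein expressed in E. coli. Incubation ran 10 min at 37°C with shaking, then 20 min on ice, followed by filtration and scintillation counting of trapped 3H-PDBu. Affinity was derived using each protein preparation's experimentally determined Kd for 3H-PDBu.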

For experiment [1], the target named is T3, C1b domain of human PKD1 (PKCμ) (Homo sapiens, UniProt Q15139).
T3 construct: Genes encoding C1b domains of human PKCα, δ, ε, θ, and PKD1 (PKCμ) were synthesized; made in house; host or cells: E. coli BL21(DE3)
T3 sequence (Q15139 270-320 limits assumed): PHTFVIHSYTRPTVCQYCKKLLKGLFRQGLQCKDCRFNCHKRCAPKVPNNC
Description: biochemical. Type of experiment: binding. Put shortly: as §1

Experiment [2] relates to phosphorylation of PKCμ, PKCδ and Erk1/2 in A549 lung cancer cells. The experiment is classed as cell-based. As to conditions: 30 minutes, Western blot. The protocol:
Cells were then treated with different drugs at indicated concentrations for 30 minutes. […] Imagequant LAS4000 (GE) was used to scan membranes if secondary antibodies anti-mouse IgG HRP conjugate or anti-rabbit IgG HRP conjugate (dilutions from 1:2000-1:10000) were used. For ProteinSimple Wes system, manufacture's procedure was followed (ProteinSimple 12-230 kDa Wes Separation Module) for sample preparation, loading, running, and data analysis.
Phosphorylation of these sites has been linked to acute activation or catalytic activity of the PKC isoforms and Erk1/2. High level of phosphorylation indicates strong activation.
A general note: In western blotting, separated proteins are transferred to a membrane and probed.

The subject of experiment [3] is A549 non-small cell lung cancer cell line. Put plainly: Proliferation of A549 (CellTiter Glo). As to conditions: read-out: IC50 μM (A549 Cell Line). Type of experiment: cell-based. Put shortly: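 A549 cells (K-Ras mutant) seeded 1,000/well, 24 h at 37° C, then treated with 3-fold serial dilutions (final DMSO ≤0.25%) for 96 h. Viability by CellTiter Glo luminescence; % inhibition vs DMSO-only Max, curve-fit to give IC50, relative IC50 and % top inhibition.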
(In general: In ATP-based viability assays light output follows the ATP content of the culture.)

The next experiment addresses T4, C1b domain of human PKCθ (Homo sapiens, UniProt Q04759).
T4 construct: Genes encoding C1b domains of human PKCα, δ, ε, θ, and PKD1 (PKCμ) were synthesized; made in house; host or cells: E. coli BL21(DE3)
T4 sequence (Q04759 231-281 limits assumed): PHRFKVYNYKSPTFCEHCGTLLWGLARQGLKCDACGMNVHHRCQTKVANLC
Description: Competitive 3H-PDBu binding to C1b domain of PKCθ. Put shortly:
as §1

In another experiment the target is T5, C1b domain of human PKCε (Homo sapiens, UniProt Q02156).
T5 construct: Genes encoding C1b domains of human PKCα, δ, ε, θ, and PKD1 (PKCμ) were synthesized; made in house; host or cells: E. coli BL21(DE3)
Put plainly: Competitive 3H-PDBu binding to C1b domain of PKCε. As to conditions: C1b domain of human PKCε, 3H-PDBu competition; read-out: Ki PKCε. The essentials: as §1

Experiment [4] has as its system Panc2.13 (Pancreatic) cell line. Put plainly: Proliferation of Panc2.13. As to conditions: Panc2.13. The experiment is classed as cell-based. The protocol: (§2) The diterpenoid compounds were tested in A549, a non-small cell lung cancer cell line harboring a K-Ras activating mutation. Briefly, A549 cells at a density of 1,000 cells/well were seeded in 96-well plates and incubated at 37° C. for 24 hours. A series of different concentrations of compound stocks (500×) were prepared by 3-fold serial dilution in DMSO. These compounds were further diluted in culture media and then added to cells so that the final DMSO concentration was not exceeding 0.25%. After 96 hours of incubation, 50 μL of CellTiter Glo reagent (Promega) was added to each well and luminescence was measured after 10 minutes using EnVision (PerkinElmer). Luminescence from cells treated with DMSO alone was set as Max and % of inhibition was calculated as follows: Inhibition %=(Max−Sample value)/Max×100. Data was analyzed using XL-fit software (ID Business Solutions Ltd.) and IC50, relative IC50, and % of top inhibition was calculated. Some of the compounds in this disclosure were very potent in blocking proliferation of A549 lung cancer cells at low nM range. In addition, potency of inhibiting A549 proliferation correlated well with its binding affinity to PKCs for this series of compounds. In other words, higher affinity binders had stronger inhibitory effects on A549 proliferation. This further support the notion that activation, rather than inhibition, of certain PKC isoforms is required to block proliferation of cancer cells, some of which may harbor K-Ras mutations. This is in sharp contrast to previous literature and common belief that inhibition of PKC is necessary to block cancer cell growth (Kang, 2014, New Journal of Science, 2014:1-36). Data presented here is in agreement with recent findings that many loss-of-function but not gain-of-function mutations of PKC isoforms have been identified in many human cancers (Antal et al., 2015, Cell, 160:489-502).
(§3) The compounds in this disclosure were tested for their potency in blocking proliferation of a few other cancer cells lines, including K-Ras mutant pancreatic cell lines Panc2.13 and KP-4, leukemia cell line HL-60, and lymphoma cell lines Namalwa and Mino. Similar procedures as in Example 67 were followed. Initial cell numbers seeded in 96-well plates were different for different cell lines: 3000 cells/well for Panc2.13; 800-1000 cells/well for KP-4; 5000 cells/well for HL-60; 5000-10000 cells/well for Namalwa and Mino. A ratio ratio of (IC50 of K01)/(IC50 of compound) (data in parenthesis in Table 5) was used to normalize the compound potency from different assay batches to a common comparator […].

Experiment [5] relates to KP-4 (Pancreatic) cell line. Description: Proliferation of KP-4. Type of experiment: cell-based. The following applies: KP-4; read-out: IC50 in μM KP-4 (Pancreatic). The protocol:
as §2, §3

The subject of experiment [6] is HL-60 (Leukemia) cell line. Put plainly: Proliferation of HL-60. The experiment is classed as cell-based. As to conditions: HL-60. As to the method:
as §2, §3

Experiment [7] relates to Namalwa (Lymphoma) cell line. Put plainly: Proliferation of Namalwa. As to conditions: Namalwa. Type of experiment: cell-based. As to the method:
as §2, §3

The test system of experiment [8] is Mino (Lymphoma) cell line. Put plainly: Proliferation of Mino. The following applies: Mino. Type of experiment: cell-based. The protocol:
as §2, §3

For another experiment, the system named is PANC1 cells. Put plainly: Sphere formation assay (cancer stemness). Type of experiment: cell-based. As to conditions: Homo sapiens, PANC-1, read-out: concentration exhibiting at least 50% inhibition on the sphere forming efficiency. As to the method: A group of diterpenoid compounds of the present disclosure were tested to assess their effects on blocking formation of spheres from cancer cell lines such as PANC1, a K-Ras mutant pancreatic cell line. Briefly, PANC1 cells were harvested, re-suspended as single cell suspensions, counted and seeded into Ultra Low Attachment Culture 96-well plate (Corning, Cat #3474) at 100 cells/well in 100 μl of complete media (with 10% FBS) containing 2% Matrigel (Corning, Cat #354234) and DMSO or compounds. Six replicates per condition were seeded. The seeded cells were placed in the 37° C. tissue culture incubator. 10 μl of low serum containing media (with 0.1% FBS) was added to each well every week. Spheres formed after 3-4 weeks were counted. Sphere forming efficiency was expressed as percentage of # of spheres/# of cells seeded.

T1 sequence (Q05655 230-280 limits assumed): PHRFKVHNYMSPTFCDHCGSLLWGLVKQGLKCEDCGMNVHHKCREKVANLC
T5 sequence (Q02156 242-292 limits assumed): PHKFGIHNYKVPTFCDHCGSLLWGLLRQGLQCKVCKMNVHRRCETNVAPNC

On to `CC1=C[C@H]2[C@@]3(O)[C@H](C)C[C@]4(OC(=O)CCc5ccncc5)[C@H]([C@@H]3C=C(CO)C[C@]2(O)C1=O)C4(C)C` [Compound K101-C1315], for which the Ki at C1b domain of human PKCδ (Ki PKCδ) is 100 to 200 nM; on C1b domain of human PKCα (Ki PKCα), greater than 8000 nM; in experiment [1] it was 30 to 60 nM. In addition, the “phosphorylation of PKC (PKD/PKCμ), PKCδ and Erk1/2” value in experiment [2] (3 μM) was “induced phosphorylation”. In experiment [3] (Homo sapiens, A549, 96 h), the IC50 lay in the range of 1 to 2 µM.

Turning to `CC1=C[C@H]2[C@@]3(O)[C@H](C)C[C@]4(OC(=O)[C@H](N)CC5CCCCC5)[C@H]([C@@H]3C=C(CO)C[C@]2(O)C1=O)C4(C)C` [Compound K101-C1337], the values for the Ki (on C1b domain of human PKCδ (Ki PKCδ); on C1b domain of human PKCα (Ki PKCα); in [1]) were 1 to 30 nM, 1000 to 2000 nM and 5 to 10 nM, respectively. Moreover, in experiment [2] (concentration not given, compared with enantiomer K101-C1327), the “phosphorylation of PKC (PKD/PKCμ), PKCδ and Erk1/2” value is reported as “induced much lower levels of phosphorylation”. In addition, in [3] (Homo sapiens, A549, 96 h), the IC50 was 0.2 to 0.6 µM.

As to `CC1=C[C@H]2[C@@]3(O)[C@H](C)C[C@]4(OC(=O)[C@@H](N)Cc5ccccc5)[C@H]([C@@H]3C=C(CO)C[C@]2(O)C1=O)C4(C)C` [Compound K101-C1303], the Ki on C1b domain of human PKCδ (read-out: Ki PKCδ) was 30 to 60 nM; on C1b domain of human PKCα (read-out: Ki PKCα) it was 400 to 800 nM; on C1b domain of human PKCθ (C1b domain of human PKCθ, 3H-PDBu competition, read-out: Ki PKCθ), 30 to 60 nM; at C1b domain of human PKCε, 100 to 200 nM; in experiment [1] (C1b domain of human PKD1 (PKCμ), 3H-PDBu competition, read-out: Ki PKD1/PKCμ), 1 to 30 nM. Moreover, the “phosphorylation of PKC (PKD/PKCμ), PKCδ and Erk1/2” value in experiment [2] (3 μM) is “induced phosphorylation”. Further, the IC50 was 0.6 to 1 µM in experiment [3] (A549, 96 hours incubation, CellTiter Glo); 1 to 2 µM in experiment [4] (read-out: IC50 in μM Panc2.13 (Pancreatic)); 0.6 to 1 µM in experiment [5]; 0.2 to 0.6 µM in experiment [6] (read-out: IC50 in μM HL-60 (Leukemia)); 0.2 to 0.6 µM in experiment [7] (read-out: IC50 in μM Namalwa (Lymphoma)); 0.1 to 0.2 µM in [8] (read-out: IC50 in μM Mino (Lymphoma)). Moreover, the “ratio of (IC50 of K01)/(IC50 of compound), Panc2.13” value in [4] (value in parenthesis) stood at 0.75. The “ratio of (IC50 of K01)/(IC50 of compound), HL-60” value in [6] (value in parenthesis) worked out at 0.9. In experiment [7] (value in parenthesis), the “ratio of (IC50 of K01)/(IC50 of compound), Namalwa” value worked out at 0.19. Also, the “ratio of (IC50 of K01)/(IC50 of compound), Mino” value in experiment [8] (value in parenthesis) was determined as 0.57.

For the compound `CC1=C[C@H]2[C@@]3(O)[C@H](C)C[C@]4(OC(=O)[C@@H](N)C(C)(C)C)[C@H]([C@@H]3C=C(CO)C[C@]2(O)C1=O)C4(C)C` [Compound K101-C1346], the Ki at C1b domain of human PKCδ (Ki PKCδ) was in the range of 1 to 30 nM; at C1b domain of human PKCα (Ki PKCα), 200 to 400 nM; at C1b domain of human PKCθ, 30 to 60 nM; in experiment [1] it was 5 to 10 nM. In addition, the IC50 in experiment [3] (Homo sapiens, A549, 96 h) was 0.2 to 0.6 µM; in the experiment on PANC1 cells it was no more than 1500 nM.

(Values after patent publication US20220411362A1, “DITERPENOID COMPOUNDS THAT ACT ON PROTEIN KINASE C (PKC)” (K-Gen, Inc., priority 2019, published 2022).)
